Assay results as given in ChEMBL document CHEMBL5724914, “Linking interpersonal differences in gut microbiota composition and drug biotransformation activity” (2024).

Columns and labels:
[1] = The drug is tested on Z-013 corresponding to rabbit gut metagenome with ENA study accession number: PRJEB37062 and ENA sample accession number: ERS12561813 for biotransformation under anaerobic condition. The drug concentrations were measured over 9 timepoints collected between 0 and 24 hours of incubation by liquid-chromatography-coupled mass spectrometry (LC–MS); details: 2 µM
[2] = The drug is tested on WLS-007 corresponding to human gut metagenome with ENA study accession number: PRJEB37062 and ENA sample accession number: ERS12561742 for biotransformation under anaerobic condition. The drug concentrations were measured over 9 timepoints collected between 0 and 24 hours of incubation by liquid-chromatography-coupled mass spectrometry (LC–MS); details: 2 µM
[3] = human gut metagenome, 24 h, 2 µM
[4] = human gut metagenome, 24 h, 2 µM; remark: listed apart in the source
[5] = human gut metagenome, 24 h, 2 µM; remark: listed apart in the source
[6] = human gut metagenome, 24 h, 2 µM; remark: listed apart in the source
[7] = human gut metagenome, 24 h, 2 µM; remark: listed apart in the source
[8] = human gut metagenome, 24 h, 2 µM; remark: listed apart in the source
[9] = The drug is tested on Z-006 corresponding to mouse gut metagenome with ENA study accession number: PRJEB37062 and ENA sample accession number: ERS12561806 for biotransformation under anaerobic condition. The drug concentrations were measured over 9 timepoints collected between 0 and 24 hours of incubation by liquid-chromatography-coupled mass spectrometry (LC–MS); details: 2 µM
[10] = The drug is tested on WLS-370 corresponding to human gut metagenome with ENA study accession number: PRJEB37062 and ENA sample accession number: ERS12561793 for biotransformation under anaerobic condition. The drug concentrations were measured over 9 timepoints collected between 0 and 24 hours of incubation by liquid-chromatography-coupled mass spectrometry (LC–MS); details: 2 µM
[11] = The drug is tested on WLS-350 corresponding to human gut metagenome with ENA study accession number: PRJEB37062 and ENA sample accession number: ERS12561789 for biotransformation under anaerobic condition. The drug concentrations were measured over 9 timepoints collected between 0 and 24 hours of incubation by liquid-chromatography-coupled mass spectrometry (LC–MS); details: 2 µM
[12] = The drug is tested on WLS-082 corresponding to human gut metagenome with ENA study accession number: PRJEB37062 and ENA sample accession number: ERS12561751 for biotransformation under anaerobic condition. The drug concentrations were measured over 9 timepoints collected between 0 and 24 hours of incubation by liquid-chromatography-coupled mass spectrometry (LC–MS); details: 2 µM
[13] = The drug is tested on WLS-052 corresponding to human gut metagenome with ENA study accession number: PRJEB37062 and ENA sample accession number: ERS12561747 for biotransformation under anaerobic condition. The drug concentrations were measured over 9 timepoints collected between 0 and 24 hours of incubation by liquid-chromatography-coupled mass spectrometry (LC–MS); details: 2 µM
[14] = The drug is tested on WLS-039 corresponding to human gut metagenome with ENA study accession number: PRJEB37062 and ENA sample accession number: ERS12561746 for biotransformation under anaerobic condition. The drug concentrations were measured over 9 timepoints collected between 0 and 24 hours of incubation by liquid-chromatography-coupled mass spectrometry (LC–MS); details: 2 µM
[15] = The drug is tested on WLS-010 corresponding to human gut metagenome with ENA study accession number: PRJEB37062 and ENA sample accession number: ERS12561743 for biotransformation under anaerobic condition. The drug concentrations were measured over 9 timepoints collected between 0 and 24 hours of incubation by liquid-chromatography-coupled mass spectrometry (LC–MS); details: 2 µM
[16] = The drug is tested on WLS-006 corresponding to human gut metagenome with ENA study accession number: PRJEB37062 and ENA sample accession number: ERS12561741 for biotransformation under anaerobic condition. The drug concentrations were measured over 9 timepoints collected between 0 and 24 hours of incubation by liquid-chromatography-coupled mass spectrometry (LC–MS); details: 2 µM
[17] = human gut metagenome, 24 h, 2 µM; remark: listed apart in the source
[18] = human gut metagenome, 24 h, 2 µM; remark: listed apart in the source
[19] = human gut metagenome, 24 h, 2 µM; remark: listed apart in the source
[20] = The drug is tested on Z-011 corresponding to mouse gut metagenome with ENA study accession number: PRJEB37062 and ENA sample accession number: ERS12561811 for biotransformation under anaerobic condition. The drug concentrations were measured over 9 timepoints collected between 0 and 24 hours of incubation by liquid-chromatography-coupled mass spectrometry (LC–MS); details: 2 µM
Further: call rule not given here.

Row | SMILES | Bacterial Biotransformation [1] | Bacterial Biotransformation [2] | Bacterial Biotransformation [3] | Bacterial Biotransformation [4] | Bacterial Biotransformation [5] | Bacterial Biotransformation [6] | Bacterial Biotransformation [7] | Bacterial Biotransformation [8] | Bacterial Biotransformation [9] | Bacterial Biotransformation [10] | Bacterial Biotransformation [11] | Bacterial Biotransformation [12] | Bacterial Biotransformation [13] | Bacterial Biotransformation [14] | Bacterial Biotransformation [15] | Bacterial Biotransformation [16] | Bacterial Biotransformation [17] | Bacterial Biotransformation [18] | Bacterial Biotransformation [19] | Bacterial Biotransformation [20]
1 | CN1[C@@H]2CC[C@H]1C[C@@H](OC(=O)[C@H](CO)c1ccccc1)C2 [HYOSCYAMINE] | Compound NOT metabolized | Compound metabolized | Compound NOT metabolized | Compound NOT metabolized | Compound NOT metabolized | Compound metabolized | Compound NOT metabolized | Compound NOT metabolized |  |  |  |  |  |  |  |  |  |  |  | 
2 | CCOC(=O)[C@H](CCc1ccccc1)N[C@@H](C)C(=O)N1CCC[C@H]1C(=O)O.O=C(O)/C=C\C(=O)O [ENALAPRIL MALEATE] |  | Compound NOT metabolized | Compound NOT metabolized | Compound NOT metabolized | Compound NOT metabolized | Compound NOT metabolized | Compound NOT metabolized | Compound NOT metabolized | Compound NOT metabolized | Compound NOT metabolized | Compound NOT metabolized | Compound NOT metabolized | Compound NOT metabolized | Compound NOT metabolized | Compound NOT metabolized | Compound NOT metabolized | Compound NOT metabolized | Compound NOT metabolized | Compound NOT metabolized | 
3 | CSc1ccc2c(c1)C(N1CCN(C)CC1)Cc1ccccc1S2.O=C(O)/C=C\C(=O)O (centres undefined) | Compound metabolized | Compound NOT metabolized | Compound NOT metabolized |  | Compound NOT metabolized | Compound NOT metabolized | Compound NOT metabolized | Compound NOT metabolized | Compound metabolized | Compound NOT metabolized | Compound NOT metabolized |  | Compound metabolized | Compound metabolized | Compound metabolized | Compound NOT metabolized | Compound NOT metabolized | Compound NOT metabolized | Compound NOT metabolized | Compound metabolized
4 | CN1C[C@H](C(=O)N[C@]2(C)O[C@@]3(O)[C@@H]4CCCN4C(=O)[C@H](Cc4ccccc4)N3C2=O)C[C@@H]2c3cccc4[nH]cc(c34)C[C@H]21.CS(=O)(=O)O [DIHYDROERGOTAMINE MESYLATE] | Compound NOT metabolized |  |  |  |  |  |  |  | Compound NOT metabolized |  |  |  |  |  |  |  |  |  |  | Compound NOT metabolized
5 | COc1ccc(Cc2nccc3cc(OC)c(OC)cc23)cc1OC [PAPAVERINE] | Compound NOT metabolized | Compound metabolized | Compound metabolized | Compound metabolized | Compound metabolized | Compound metabolized | Compound NOT metabolized | Compound NOT metabolized | Compound NOT metabolized | Compound metabolized | Compound metabolized |  | Compound metabolized | Compound metabolized | Compound metabolized | Compound NOT metabolized | Compound metabolized | Compound NOT metabolized | Compound metabolized | Compound NOT metabolized

Second part, the molecule after the results:

Row | Bacterial Biotransformation [1] | Bacterial Biotransformation [2] | Bacterial Biotransformation [3] | Bacterial Biotransformation [4] | Bacterial Biotransformation [5] | Bacterial Biotransformation [6] | Bacterial Biotransformation [7] | Bacterial Biotransformation [8] | Bacterial Biotransformation [9] | Bacterial Biotransformation [10] | Bacterial Biotransformation [11] | Bacterial Biotransformation [12] | Bacterial Biotransformation [13] | Bacterial Biotransformation [14] | Bacterial Biotransformation [15] | Bacterial Biotransformation [16] | Bacterial Biotransformation [17] | Bacterial Biotransformation [18] | Bacterial Biotransformation [19] | Bacterial Biotransformation [20] | SMILES
6 | Compound metabolized |  | Compound metabolized | Compound metabolized | Compound metabolized | Compound metabolized | Compound NOT metabolized | Compound metabolized | Compound metabolized | Compound metabolized |  |  | Compound metabolized | Compound metabolized | Compound metabolized |  | Compound metabolized | Compound metabolized | Compound metabolized | Compound metabolized | C#C[C@]1(OC(C)=O)CC[C@H]2[C@@H]3CCC4=CC(=O)CC[C@@H]4[C@H]3CC[C@@]21C [NORETHINDRONE ACETATE]
7 | Compound NOT metabolized | Compound metabolized | Compound metabolized | Compound NOT metabolized | Compound metabolized | Compound metabolized | Compound NOT metabolized | Compound NOT metabolized | Compound NOT metabolized | Compound metabolized | Compound NOT metabolized |  | Compound metabolized | Compound metabolized | Compound metabolized | Compound metabolized | Compound metabolized | Compound metabolized | Compound NOT metabolized | Compound NOT metabolized | CCc1cccc2c3c([nH]c12)C(CC)(CC(=O)O)OCC3 (centres undefined) [ETODOLAC]
8 | Compound NOT metabolized |  |  |  |  |  |  |  | Compound NOT metabolized |  |  |  |  |  |  |  |  |  |  | Compound NOT metabolized | Cc1ccc(NC(=O)c2ccc(CN3CCN(C)CC3)cc2)cc1Nc1nccc(-c2cccnc2)n1 [IMATINIB]
